Tests used:
Type in all cases: cell-based, murine
L1210S = assay: In vitro cytotoxicity, growth inhibition of normal L1210 cell line over 72 hours; conditions: for ID50: normal L1210 cell line, 72 hours; for factor of crossresistance (resistance ratio): ID50 divided by ID50 against normal cell line, in parentheses, 4320 min
Procedure: (§1) ID50 values are the concentration of complex required to inhibit the in vitro growth of treated cells to a level of 50% of that for untreated cells over a 72-hour period. The cell lines are suspended in appropriate media at a concentration which results in the cells remaining in log phase growth throughout the treatment period. Serially diluted drug is added to duplicate wells containing the cell growth. After 72 hours of incubation of the cell lines in 5% CO2, the cells are counted and the ID50 values determined.
(§2) Resistance ratio values shown in Table 1 were calculated by dividing the ID50 values against the resistant cell lines by the ID50 values against the normal cell lines. The resistance ratio values shown in the table indicate a measure of the degree of resistance of the cell line to a particular drug.

L1210PtR4 = assay: In vitro cytotoxicity, growth inhibition of resistant L1210 cell line L1210PtR4 over 72 hours; conditions: for ID50: 72 hours; for factor of crossresistance (resistance ratio): ID50 resistant / ID50 normal cell line, in parentheses, 4320 min
Procedure: as §1, §2

L1210DDP5 = assay: In vitro cytotoxicity, growth inhibition of resistant L1210 cell line L1210DDP5 over 72 hours; conditions: for ID50: 72 hours; for factor of crossresistance (resistance ratio): ID50 resistant / ID50 normal cell line, in parentheses, 4320 min
Procedure: as §1, §2

L1210DACH = assay: In vitro cytotoxicity, growth inhibition of Pt(DACH)Cl2-resistant L1210 cell line over 72 hours; conditions: for ID50 / factor of crossresistance (resistance ratio): L1210DACH; for ID50: 72 hours; for factor of crossresistance (resistance ratio): ID50 resistant / ID50 normal cell line, in parentheses; for factor of crossresistance (resistance ratio) / cross resistance to Pt(DACH)Cl2-resistant L1210 cells in culture: 4320 min
Procedure: as §1, §2

L1210 cell lines = assay: In vitro antitumor activity against L1210 cell lines compared with cisplatin; conditions: in words
Procedure: as §1, §2

[1] = tested on: cisplatin-resistant cells; assay: In vitro activity against cisplatin-resistant L1210 cells compared with cisplatin; conditions: in words; for effectiveness against cisplatin-resistant cells: compared with cisplatin
Procedure: as §1, §2

Molecule | ID50 (L1210S) [mg/L] | ID50 (L1210PtR4) [mg/L] | ID50 (L1210DDP5) [mg/L] | ID50 (L1210DACH) [mg/L] | factor of crossresistance (resistance ratio) (L1210S) | factor of crossresistance (resistance ratio) (L1210PtR4) | factor of crossresistance (resistance ratio) (L1210DDP5) | factor of crossresistance (resistance ratio) (L1210DACH) | cross resistance to Pt(DACH)Cl2-resistant L1210 cells in culture (L1210DACH) [fold] | antitumor activity compared to cisplatin (potency and response) (L1210 cell lines) | effectiveness against cisplatin-resistant cells [1] | cross resistance to cisplatin [1]
N.N.[Cl][Pt][Cl] [Cisplatin, cis-diaminedichloroplatinum(II), reference compound] | 0.34 | 3.61 | 5.63 | 0.467 |  |  |  |  |  |  |  | 
NC1CCCCC1N.[Cl][Pt][Cl] (stereo not drawn) [[Pt(trans-l-DACH)Cl2], [SP-4-2-(1R-trans)]-dichloro(1,2-cyclohexanediamine-N,N')platinum, reference compound] | 0.088 | 0.159 | 0.176 | 2.67 | 1 | 1.8 | 2 | 30 | 30 |  |  | 
(SP-4-2)-Dichloro(1,5-pentanediamine-N,N')-platinum [Example 1] | 0.43 | 1.13 | 1.58 | 1.17 | 1 | 2.6 | 3.7 | 2.7 | 2.7 | superior to cisplatin both in potency and response | more effective than cisplatin against cisplatin-resistant cells | some degree of cross resistance to cisplatin
(SP-4-2)-Dichloro(1,6-hexanediamine-N,N')-platinum [Example 2] | 0.93 | 2.8 | 3.7 | 2.13 | 1 | 3 | 4 | 2.3 | 2.3 | superior to cisplatin both in potency and response | more effective than cisplatin against cisplatin-resistant cells | some degree of cross resistance to cisplatin

Reference: US5049686A, “Novel large-ring diamine platinum(II) and platinum(IV) chelates” (Warner-Lambert Company, priority 1989, dated 1991)
